According to ChEMBL document CHEMBL4725221, “Thiazoles, Their Benzofused Systems, and Thiazolidinone Derivatives: Versatile and Promising Tools to Combat Antibiotic Resistance” (J Med Chem, 2020):
Values after ≈ are worked out from the molar mass of the structure shown.

Legend:
Escherichia coli [1] = assay: Antibacterial activity against Escherichia coli AG102 in presence of ciprofloxacin; type: functional
Escherichia coli [2] = assay: Antibacterial activity against Escherichia coli AG102; type: functional
Staphylococcus aureus [3] = assay: Antibacterial activity against Staphylococcus aureus ATCC 49444 after 24 hrs by CLSI protocol based cup-plate agar diffusion method; type: functional
Pseudomonas aeruginosa [4] = assay: Antibacterial activity against Pseudomonas aeruginosa ATCC 27853 after 24 hrs by CLSI protocol based cup-plate agar diffusion method; type: functional
Listeria monocytogenes = assay: Antibacterial activity against Listeria monocytogenes ATCC 19115 after 24 hrs by CLSI protocol based cup-plate agar diffusion method; type: functional
Salmonella typhimurium = assay: Antibacterial activity against Salmonella typhimurium ATCC 14028 after 24 hrs by CLSI protocol based cup-plate agar diffusion method; type: functional, Salmonella enterica subsp. enterica serovar Typhimurium; details: Salmonella enterica
Staphylococcus aureus [5] = assay: Antibacterial activity against Staphylococcus aureus ATCC 25923 by CLSI protocol based microdilution method; type: functional, organism-based
Staphylococcus aureus [6] = assay: Antibacterial activity against Staphylococcus aureus ATCC 6538 by CLSI protocol based microdilution method; type: functional, organism-based
Bacillus subtilis [7] = assay: Antibacterial activity against Bacillus subtilis; type: functional
Staphylococcus aureus [8] = assay: Antibacterial activity against Staphylococcus aureus; type: functional
Micrococcus luteus = assay: Antibacterial activity against Micrococcus luteus; type: functional
Escherichia coli [9] = assay: Antibacterial activity against Escherichia coli; type: functional
Pseudomonas aeruginosa [10] = assay: Antibacterial activity against Pseudomonas aeruginosa; type: functional
Raoultella planticola = assay: Antibacterial activity against Klebsiella planticola; type: functional
Staphylococcus aureus [11] = assay: Antibacterial activity against Staphylococcus aureus MLS16; type: functional
Enterococcus faecalis [12] = assay: Antibacterial activity against Enterococcus faecalis; type: functional
[13] = tested on: Staphylococcus saprophyticus; assay: Antibacterial activity against Staphylococcus saprophyticus; type: functional
Enterococcus faecalis [14] = assay: Antibiofilm activity against Enterococcus faecalis; type: functional
Escherichia coli [15] = assay: Antibacterial activity against Escherichia coli MTCC 40 after 7 days by two-fold serial dilution method; type: functional; details: MTCC 40, 168 h, time 7 day
Staphylococcus aureus [16] = assay: Antibacterial activity against Staphylococcus aureus MTCC 121 after 7 days by two-fold serial dilution method; type: functional; details: MTCC 121, 168 h, time 7 day
Pseudomonas aeruginosa [17] = assay: Antibacterial activity against Pseudomonas aeruginosa MTCC 2453 after 7 days by two-fold serial dilution method; type: functional; details: MTCC 2453, 168 h, time 7 day
Bacillus subtilis [18] = assay: Antibacterial activity against Bacillus subtilis […] after 7 days by two-fold serial dilution method; type: functional; details: 168 h, time 7 day

For `Cc1ccc(CC(=O)Nc2ccc(-c3nc4ccccc4s3)cc2)cc1`, the MIC (Escherichia coli [1]) was 0.004 µg/mL and the MIC (Escherichia coli [2]) was 512 µg/mL (≈ 1430 µM).

For `COc1ccc(CC(=O)Nc2ccc(-c3nc4ccccc4s3)cc2)cc1`, the MIC (Escherichia coli [1]) was 0.008 µg/mL and the MIC (Escherichia coli [2]) was 256 µg/mL (≈ 684 µM).

In the case of `CCc1ccc(C(=O)Nc2ccc(-c3nc4ccccc4s3)cc2)cc1`, the MIC (Escherichia coli [1]) is reported as 0.016 µg/mL and the MIC (Escherichia coli [2]) is reported as 128 µg/mL (≈ 357 µM).

Compound `O=C(Cc1ccc(F)cc1)Nc1ccc(-c2nc3ccccc3s2)cc1` has an MIC (Escherichia coli [1]) of 0.03 µg/mL and an MIC (Escherichia coli [2]) of 128 µg/mL (≈ 353 µM).

With `O=C(Nc1ccc(-c2nc3ccccc3s2)cc1)c1ccccc1` the MIC (Escherichia coli [1]) was 0.03 µg/mL and the MIC (Escherichia coli [2]) was 256 µg/mL (≈ 775 µM).

`Cc1nc(-c2ccccc2)sc1-c1nnc(S)n1/N=C\c1ccc(Br)cc1` was tested, and the MIC (Staphylococcus aureus [3]) was 31.2 µg/mL (≈ 68.4 µM), the MIC (Pseudomonas aeruginosa [4]) was 1.9 µg/mL (≈ 4.16 µM) and the MIC (Listeria monocytogenes) was 1.9 µg/mL (≈ 4.16 µM). For the same compound, the MIC (Salmonella typhimurium) was 62.5 µg/mL (≈ 137 µM).

`O=C(Cc1ccccc1)Nc1ccc(-c2nc3ccccc3s2)cc1` was tested, and the MIC (Escherichia coli [1]) was 0.125 µg/mL and the MIC (Escherichia coli [2]) was 256 µg/mL (≈ 743 µM).

Compound `COCCn1cc(-c2nc(-c3cn(C)c4ccccc34)cs2)c2cc(OC)ccc21` has an IC50 (Staphylococcus aureus [5]) of 1.2 µg/mL (≈ 2.87 µM) and an IC50 (Staphylococcus aureus [6]) of 11.5 µg/mL (≈ 27.5 µM).

Compound `O=c1oc2ccccc2cc1-c1nn(-c2nc3ccccc3s2)cc1/C=N/Nc1nc(-c2ccc(Br)cc2)cs1` has an MIC (Bacillus subtilis [7]) of 3.9 µg/mL (≈ 6.23 µM), an MIC (Staphylococcus aureus [8]) of 7.8 µg/mL (≈ 12.5 µM) and an MIC (Micrococcus luteus) of 7.8 µg/mL (≈ 12.5 µM). The MIC (Escherichia coli [9]) was 7.8 µg/mL (≈ 12.5 µM), the MIC (Pseudomonas aeruginosa [10]) was > 125 µg/mL and the MIC (Raoultella planticola) was 7.8 µg/mL (≈ 12.5 µM). For the same compound, the MIC (Staphylococcus aureus [11]) was 7.8 µg/mL (≈ 12.5 µM).

`N#Cc1ccc(-c2csc(-c3cccc(-c4csc(-c5ccccc5)n4)c3)n2)cc1` was tested, and the MIC (Enterococcus faecalis [12]) was 62 µg/mL (≈ 147 µM), the MIC [13] was 16 µg/mL (≈ 38 µM) and the MBIC (Enterococcus faecalis [14]) was 0.002 mg/mL.

`Cc1ccc(-c2csc(N/N=C/c3cn(-c4nc5ccccc5s4)nc3-c3cc4ccccc4oc3=O)n2)cc1` showed an MIC (Bacillus subtilis [7]) of 1.9 µg/mL (≈ 3.39 µM), an MIC (Staphylococcus aureus [8]) of 7.8 µg/mL (≈ 13.9 µM) and an MIC (Micrococcus luteus) of 3.9 µg/mL (≈ 6.96 µM). The MIC (Escherichia coli [9]) was 7.8 µg/mL (≈ 13.9 µM), the MIC (Pseudomonas aeruginosa [10]) was 3.9 µg/mL (≈ 6.96 µM) and the MIC (Raoultella planticola) was 3.9 µg/mL (≈ 6.96 µM). It also gave an MIC (Staphylococcus aureus [11]) of 7.8 µg/mL (≈ 13.9 µM).

For `Cc1nc(-c2ccccc2)sc1-c1nnc(S)n1/N=C\c1ccc([N+](=O)[O-])cc1`, the MIC (Staphylococcus aureus [3]) was 62.5 µg/mL (≈ 148 µM), the MIC (Pseudomonas aeruginosa [4]) was 1.9 µg/mL (≈ 4.5 µM) and the MIC (Listeria monocytogenes) was 1.9 µg/mL (≈ 4.5 µM). For the same compound, the MIC (Salmonella typhimurium) was 62.5 µg/mL (≈ 148 µM).

`c1ccc(-c2nc(-c3cccc(-c4nc(-c5cccc6ccccc56)cs4)c3)cs2)cc1` gave an MIC (Enterococcus faecalis [12]) of 16 µg/mL (≈ 35.8 µM) and an MBIC (Enterococcus faecalis [14]) of 0.004 mg/mL.

`O=C(CCCCc1ccccc1)Nc1ccc(-c2nc3ccccc3s2)cc1` was tested, and the MIC (Escherichia coli [1]) was 0.004 µg/mL and the MIC (Escherichia coli [2]) was 512 µg/mL (≈ 1320 µM).

Work on `O=c1oc2c(Br)cccc2cc1-c1csc(N/N=C/c2cn(-c3nc4ccccc4s3)nc2-c2cc3ccccc3oc2=O)n1` yielded an MIC (Bacillus subtilis [7]) of 3.9 µg/mL (≈ 5.62 µM), an MIC (Staphylococcus aureus [8]) of 7.8 µg/mL (≈ 11.2 µM) and an MIC (Micrococcus luteus) of 7.8 µg/mL (≈ 11.2 µM). The MIC (Escherichia coli [9]) was 7.8 µg/mL (≈ 11.2 µM), the MIC (Pseudomonas aeruginosa [10]) was 7.8 µg/mL (≈ 11.2 µM) and the MIC (Raoultella planticola) was 7.8 µg/mL (≈ 11.2 µM). For the same compound, the MIC (Staphylococcus aureus [11]) was 7.8 µg/mL (≈ 11.2 µM).

`COc1ccc(-c2csc(N/N=C/c3cn(-c4nc5ccccc5s4)nc3-c3cc4ccccc4oc3=O)n2)cc1` was tested, and the MIC (Bacillus subtilis [7]) was 7.8 µg/mL (≈ 13.5 µM), the MIC (Staphylococcus aureus [8]) was 7.8 µg/mL (≈ 13.5 µM) and the MIC (Micrococcus luteus) was 7.8 µg/mL (≈ 13.5 µM). It also gave an MIC (Escherichia coli [9]) of 7.8 µg/mL (≈ 13.5 µM), an MIC (Pseudomonas aeruginosa [10]) of 7.8 µg/mL (≈ 13.5 µM) and an MIC (Raoultella planticola) of 7.8 µg/mL (≈ 13.5 µM). The MIC (Staphylococcus aureus [11]) was 7.8 µg/mL (≈ 13.5 µM).

Compound `O=C(Nc1ccc(Cc2nc3ccccc3s2)cc1)c1ccc(F)cc1` has an MIC (Escherichia coli [1]) of 0.03 µg/mL and an MIC (Escherichia coli [2]) of 128 µg/mL (≈ 353 µM).

For `COCCn1cc(-c2csc(-c3cn(C(=O)OC(C)(C)C)c4ccccc34)n2)c2ccccc21`, the IC50 (Staphylococcus aureus [5]) was 1.8 µg/mL (≈ 3.8 µM) and the IC50 (Staphylococcus aureus [6]) was 6.9 µg/mL (≈ 14.6 µM).

For `COCCn1cc(-c2csc(-c3cn(CCOC)c4ccc(Br)cc34)n2)c2ccccc21`, the IC50 (Staphylococcus aureus [5]) was 2.9 µg/mL (≈ 5.68 µM) and the IC50 (Staphylococcus aureus [6]) was 18.8 µg/mL (≈ 36.8 µM).

For `Cc1nc(-c2ccccc2)sc1-c1nnc(S)n1/N=C\c1cccs1`, the MIC (Staphylococcus aureus [3]) was 15.6 µg/mL (≈ 40.7 µM), the MIC (Pseudomonas aeruginosa [4]) was 1.9 µg/mL (≈ 4.95 µM) and the MIC (Listeria monocytogenes) was 1.9 µg/mL (≈ 4.95 µM). The MIC (Salmonella typhimurium) was 62.5 µg/mL (≈ 163 µM).

For `COc1cccc(/C=N\n2c(S)nnc2-c2sc(-c3ccccc3)nc2C)c1`, the MIC (Staphylococcus aureus [3]) was 31.2 µg/mL (≈ 76.6 µM), the MIC (Pseudomonas aeruginosa [4]) was 1.9 µg/mL (≈ 4.66 µM) and the MIC (Listeria monocytogenes) was 1.9 µg/mL (≈ 4.66 µM). The MIC (Salmonella typhimurium) was 31.2 µg/mL (≈ 76.6 µM).

`Cc1nc(-c2ccccc2)sc1-c1nnc(S)n1/N=C\c1ccc(F)cc1` showed an MIC (Staphylococcus aureus [3]) of 31.2 µg/mL (≈ 78.9 µM), an MIC (Pseudomonas aeruginosa [4]) of 1.9 µg/mL (≈ 4.8 µM) and an MIC (Listeria monocytogenes) of 1.9 µg/mL (≈ 4.8 µM). For the same compound, the MIC (Salmonella typhimurium) was 62.5 µg/mL (≈ 158 µM).

In the case of `O=C(NN1C(=O)/C(=C/c2ccccc2)SC1c1cccc(Br)c1)c1ccc(-c2ccccc2)cc1` (configuration not stated), the MIC (Escherichia coli [15]) is reported as 6.25 µg/mL (≈ 11.5 µM), the MIC (Staphylococcus aureus [16]) is reported as 3.12 µg/mL (≈ 5.76 µM) and the MIC (Pseudomonas aeruginosa [17]) is reported as 3.12 µg/mL (≈ 5.76 µM). For the same compound, the MIC (Bacillus subtilis [18]) was 3.12 µg/mL (≈ 5.76 µM).

With `O=C(NN1C(=O)/C(=C/c2ccccc2)SC1c1ccccc1)c1ccc(-c2ccccc2)cc1` (configuration not stated) the MIC (Escherichia coli [15]) was 6.25 µg/mL (≈ 13.5 µM), the MIC (Staphylococcus aureus [16]) was 6.25 µg/mL (≈ 13.5 µM) and the MIC (Pseudomonas aeruginosa [17]) was 6.25 µg/mL (≈ 13.5 µM). It also gave an MIC (Bacillus subtilis [18]) of 3.12 µg/mL (≈ 6.74 µM).

`O=C(NN1C(=O)/C(=C/c2cccc([N+](=O)[O-])c2)SC1c1cccc(Br)c1)c1ccc(-c2ccccc2)cc1` (configuration not stated) was tested, and the MIC (Escherichia coli [15]) was 3.12 µg/mL (≈ 5.32 µM), the MIC (Staphylococcus aureus [16]) was 1.56 µg/mL (≈ 2.66 µM) and the MIC (Pseudomonas aeruginosa [17]) was 1.56 µg/mL (≈ 2.66 µM). For the same compound, the MIC (Bacillus subtilis [18]) was 1.56 µg/mL (≈ 2.66 µM).

`CCCCOc1ccc(C(=O)Nc2ccc(-c3nc4ccccc4s3)cc2)cc1` showed an MIC (Escherichia coli [1]) of 0.5 µg/mL and an MIC (Escherichia coli [2]) of 64 µg/mL (≈ 159 µM).

For `Cc1sc(-c2cccc(-c3csc(-c4ccccc4)n3)c2)nc1-c1ccccc1`, the MIC (Enterococcus faecalis [12]) was 250 µg/mL (≈ 609 µM), the MIC [13] was > 1000 µg/mL and the MBIC (Enterococcus faecalis [14]) was 0.004 mg/mL.
